Reference: patent US10851073B2, “Protein tyrosine phosphatase inhibitors and methods of use thereof” (Calico Life Sciences LLC, priority 2019, dated 2020)
pEC50, pIC50: −log10 of the molar value.

Key:
[1] = biological target: T1, His tagged PTPN2 (TC45) protein (Homo sapiens, UniProt P17706); assay: Mobility shift assay used to determine potency of PTPN2 inhibitors; type: biochemical; settings: enzyme 0.5 nM, substrate 2 μM; read-out: PTPN2 MSA IC50
T1 construct: made in house
T1 sequence (P17706 with tags, fused parts or gaps isoform P17706-2): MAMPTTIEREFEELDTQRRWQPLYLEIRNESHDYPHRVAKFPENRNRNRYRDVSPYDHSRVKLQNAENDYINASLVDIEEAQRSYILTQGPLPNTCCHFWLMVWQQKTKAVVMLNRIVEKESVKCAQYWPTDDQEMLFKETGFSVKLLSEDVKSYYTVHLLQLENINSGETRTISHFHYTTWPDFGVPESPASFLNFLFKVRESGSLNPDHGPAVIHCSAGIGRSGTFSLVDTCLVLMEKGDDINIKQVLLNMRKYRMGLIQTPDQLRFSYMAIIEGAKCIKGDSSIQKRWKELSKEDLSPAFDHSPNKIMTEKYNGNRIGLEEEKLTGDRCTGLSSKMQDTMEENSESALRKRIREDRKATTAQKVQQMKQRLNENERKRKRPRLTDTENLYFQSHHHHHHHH
How it was run: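 Enzyme (0.5 nM) preincubated with compound (12-point, 1:3 dilution) 10 min at room temperature in 50 mM HEPES pH 7.5, 1 mM EGTA, 10 mM EDTA, 0.01% Tween 20, 2 mM DTT; OG488-labelled phospho-insulin-receptor peptide substrate (2 μM) added for 10 min, then quenched. Microfluidic mobility shift (ex 488/em 530 nm) gave % conversion; IC50 from % inhibition.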

[2] = system: Pan T cells isolated from C57BL6 splenocytes; assay: T cell function assays (IFNγ and TNFα in supernatants); type: cell-based, mouse; settings: 0.3 μM compound, 3 days; for IFNγ [pg/mL] anti-CD3/CD28 / TNFα [pg/mL] anti-CD3/CD28: anti-CD3/CD28 stimulation
Experimental: Example 231: T Cell Function Assays Pan T cells were isolated from C57BL6 splenocytes using a MACS Pan T cell isolation kit II (Miltenyi Biotec, Auburn, Calif.) according to the manufacturer's instructions. Isolated T cells (200,000 cells/well in a 96 well flat-bottom plate) were cultured in RPMI 1640 supplemented with 10% FBS, […] 2-mercaptoethanol, 100 U/mL penicillin, and 100 μg/mL streptomycin, and incubated with 0.3 μM compound or DMSO in duplicates. After 1 hour, mouse T cell activator CD3/CD28 Dynabeads (ThermoFisher Scientific, Waltham, Mass.) were added at a 1:5 beads to cells ratio to stimulate the T cells for 3 days. T cells with or without compound were incubated in the absence of T cell activator beads to evaluate if compounds nonspecifically stimulate the T cells. After 3 days of stimulation, supernatants were collected and IFNγ and TNFα in supernatants were assessed using an MSD V-plex assay (Meso Scale Discovery, Rockville, Md.).

[3] = system: IFNγ-induced STAT1 phosphorylation in CD14+ monocytes; assay: Human whole blood pSTAT1 proximal pharmacodynamic (PD) assay; type: cell-based; settings: Monocyte, 3 hours compound, IFNγ 20 minutes
Experimental: Example 230: Human Whole Blood pSTAT1 Proximal Pharmacodynamic (PD) Assay Human blood samples were acquired through internal AbbVie Inc's blood donation program in accordance with AbbVie's Occupational Safety and Health Administration protocols. Blood was collected by venipuncture into sodium heparin coated vacutainer tubes and kept at room temperature for no longer than 1 hour prior to the experiment initiation. Human blood samples (90 μL) were added to the individual wells of 96-well plates containing 10 μL of 10× working stock solutions of increasing concentrations of compounds to achieve final concentrations ranging from 0.025 μM to 500 μM and incubated for 3 hours at 37° C. To induce STAT1 phosphorylation the samples were then treated with recombinant human IFNγ (R&D Systems, Catalog^#285-IF, Minneapolis, Minn.; 100 nM final concentration) for 20 minutes, and 3 μL/well BV421 labeled anti-CD14 surface antibody (Biolegend, San Diego, Calif., Catalog^#301830) was added for 45 minutes before fixation and red blood cell lysis was performed with BD Phosflow Lyse/Fix buffer (BD Biosciences, San Jose, Calif., Catalog^#558049). Cells were subsequently permeabilized on ice by the addition of BD Perm III buffer (BD Biosciences, San Jose, Calif., Catalog^#558050) and stored at -80° C. until use. Before staining, the cells were washed with PBS containing 0.1% BSA. Optim/zed concentrations of BUV395 labeled anti-CD45 (BD Biosciences, San Jose, Calif., Catalog^#563792) and PE labeled anti-phospho-STAT1 ([…]; Invitrogen, Carlsbad, Calif., Catalog^#12-9008-42) antibodies were added to the cell suspensions and incubated for 2 hours. The cells were washed with PBS containing 0.1% BSA and analyzed on a BD LSRFortessaTM X20 flow cytometer (BD Biosciences, San Jose, Calif.) using BD FACSDivaTM software. The data was analyzed using FlowJo V10 analysis software (Flow Jo LLC, Ashland, Oreg.). The amount of STAT phosphorylation was measured by the mean fluorescence intensity (MFI) of pSTAT1 in CD14+monocytes. Compound dose-response curves were determined using a four-parameter logistic-nonlinear regression model from which half maximal effective concentrations (EC50) were calculated. All statistical analyses utilized GraphPad software (San Diego, Calif.).

| SMILES | pIC50 [1] | IFNγ [pg/mL] anti-CD3/CD28 [2] [pg/mL] | TNFα [pg/mL] anti-CD3/CD28 [2] [pg/mL] | IFNγ [pg/mL] no stimulation [2] [pg/mL] | TNFα [pg/mL] no stimulation [2] [pg/mL] | pEC50 [3] |
| --- | --- | --- | --- | --- | --- | --- |
| CC(C)CCN[C@@H]1CCc2cc(O)c(N3CC(=O)NS3(=O)=O)c(F)c2C1 (single isomer, unassigned) [Compound 118] | 8.00 to 9.00 | 261.3 | 159.1 | 1.8 | 1.1 | 6.24 |
| O=C1CN(c2c(O)cc3c(c2F)C[C@H](NCCC2CC2)CC3)S(=O)(=O)N1 (single isomer, unassigned) [Compound 133] | 8.00 to 9.00 | 204.1 | 142.0 | 1.0 | 0.8 | 5.80 |
| CC(C)(CCN[C@@H]1CCc2cc(O)c(N3CC(=O)NS3(=O)=O)c(F)c2C1)C(F)(F)F (single isomer, unassigned) [Compound 177] | > 9.00 | 168.2 | 113.7 | 1.0 | 0.7 | 5.70 |
| O=C1CN(c2c(O)cc3c(c2F)C[C@H](NCCCC(F)F)CC3)S(=O)(=O)N1 (single isomer, unassigned) [Compound 199] | > 9.00 | 212.9 | 147.8 | 1.8 | 1.1 | 6.08 |
| O=C1CN(c2c(O)cc3c(c2F)C[C@@H](NCCC(F)F)CC3)S(=O)(=O)N1 (single isomer, unassigned) [Compound 259] | 7.00 to 8.00 |  |  |  |  | 4.85 |
| O=C1CN(c2c(O)cc3c(c2F)C[C@H](NCCC(F)F)CC3)S(=O)(=O)N1 (single isomer, unassigned) [Compound 260] | 8.00 to 9.00 | 139.6 | 100.0 | 0.8 | 1.1 | 5.36 |
